≈ marks a conversion by molar mass, not a printed value.
How the values were obtained:
Format in all cases: functional, cell-based
HT-29 = experiment: Cytotoxicity against human HT29 cells after 72 hrs; settings: HT-29, 72 h
P388 = experiment: Cytotoxicity against mouse P388 cells after 72 hrs; settings: P388, 72 h
A549 = experiment: Cytotoxicity against human A549 cells after 72 hrs; settings: A549, 72 h
[1] = Cytotoxicity against human KB16 cells after 72 hrs; settings: KB16, 72 h

`CC(=O)O[C@H]1C[C@@]2(O)[C@@H](OC(C)=O)[C@@H]3[C@@]4(CO4)[C@@H](OC(C)=O)C[C@H](O)[C@@]3(C)[C@@H](O)[C@H](OC(C)=O)C(=C1C)C2(C)C` [TAXUMAIROL B] gave an IC50 (HT-29) greater than 50 µg/mL, an IC50 (P388) greater than 50 µg/mL and an IC50 (A549) greater than 50 µg/mL. It also gave an IC50 [1] of 1.4 µg/mL (≈ 2.46 µM).

Work on `CC(=O)O[C@H]1C[C@H]2[C@@H](OC(=O)c3ccccc3)[C@@H]3[C@](O)(CO)[C@@H](OC(C)=O)C[C@H](OC(C)=O)[C@@]3(C)[C@@H](OC(C)=O)[C@H](OC(C)=O)C(=C1C)C2(C)C` yielded an IC50 (HT-29) of 1.4 µg/mL (≈ 1.95 µM), an IC50 (P388) of 2.4 µg/mL (≈ 3.35 µM) and an IC50 (A549) of 4.8 µg/mL (≈ 6.7 µM). For the same molecule, the IC50 [1] was 1 µg/mL (≈ 1.4 µM).

Work on `CC(=O)O[C@H]1C[C@H]2[C@@H](O)[C@@H]3[C@](O)(COC(=O)c4ccccc4)[C@@H](OC(C)=O)C[C@H](OC(C)=O)[C@@]3(C)[C@@H](OC(C)=O)[C@H](OC(C)=O)C(=C1C)C2(C)C` [TAXUMAIROL A] yielded an IC50 (HT-29) of 1 µg/mL (≈ 1.4 µM), an IC50 (P388) of 0.05 µg/mL (≈ 0.0698 µM) and an IC50 (A549) of 1.7 µg/mL (≈ 2.37 µM). The IC50 [1] was 0.4 µg/mL (≈ 0.558 µM).
